Columns and labels:
[1] = tested on: STAM mice; assay: STAM model of NASH
Procedure: Further experiments in the STAM model were performed: 2-day old male C57BI/6J mice were injected with streptozotocin and placed on a high-fat diet (HFD) from weeks 4-12 (HFD-32; CLEA-Japan, Tokyo, Japan). […] Hematoxylin & eosin (H&E)-stained sections were evaluated for nonalcoholic fatty liver disease (NAFLD) activity score (NAS) according to previously defined criteria. Liver total lipid-extracts were isolated, and triglycerides were measured using the Triglyceride E-test (Wako Pure Chemical Industries, Ltd., Japan).
(§1) Liver sections were fixed in 4% paraformaldehyde for 48 h and shipped for histopathological analysis. Liver damage and collagen deposition were assessed by H&E staining and picrosirius red staining, respectively. […] Quantification of images was done with a positive pixel count algorithm using Aperio software (Aperio, Inc., Vista, Calif.).

[2] = tested on: FGRS; assay: FGRS effects (specificity)
[3] = tested on: NASH mice; assay: Diet-induced (AMLN diet) obese, insulin-resistant NASH model; format: in vivo, mouse
Text: A separate model for diet-induced NASH was developed as described by Trevaskis et al. Male C57BI6 mice aged ˜6 weeks were maintained on a high fat (40% kcal; Primex), high fructose (22% by weight), and high cholesterol (2% by weight) diet (Research Diets Inc., New Brunswick, N.J. cat. no. D09100301) for 26 weeks to induce NASH. Control animals received low-fat diet (10% kcal) with no fructose or cholesterol (Research Diets, cat. no. D09100304). […] . Expression of collagen, type I, alpha 1 (Col1a1) and tissue inhibitor of metalloproteinase 1 (Timp1) genes was analyzed by real time quantitative PCR.
. NASH was established in mice by feeding a high trans-fat, high fructose, and high cholesterol diet (AMLN diet) for 26 weeks followed by compound treatment for an additional 4 weeks. […] . […] .

[4] = tested on: NASH patients; assay: Tropifexor 140-250 μg in patients with mild to moderate NASH and F2/F3 fibrosis; format: in vivo, human; conditions: dose of about 140 μg to about 250 μg
Text: Adult male and female patients with EITHER histologic evidence of NASH on liver biopsy within 2 years prior to randomization and elevated ALT, OR phenotypic diagnosis of NASH based on elevated ALT, Type 2 diabetes mellitus or elevated HbA1c and increased BMI, in both cases accompanied by liver fat >10% on centrally-read MRI.
Diagnosis of NASH: Adequate liver biopsy sample for evaluation by Central Reader to confirm Histologic evidence of NASH based on liver biopsy obtained during the Screening period or within 6 months before randomization with a diagnosis consistent with NASH, fibrosis level F2 or F3, and no diagnosis of alternative chronic liver diseases._AND_ALT ≥43 IU/L (males) or ≥28 IU/L (females).
Patients are assigned at the baseline visit to one of the following 3 treatment arms in a ratio of 1:1:1 in a blinded manner. Placebo capsules will be given to maintain blinding.
Arm 3: Once daily (morning, fasting) treatment with matching placebo for 48 weeks
The efficacy variables are: MRI for hepatic fat fraction, Liver Function Test, Liver histology, Coagulation test, Markers of liver fibrosis, NAFLD Fibrosis score, Fasting lipids, Fasting insulin and glucose, Soluble biomarkers.

[5] = Exposure prediction and exposure-response analysis in NASH patients; format: in vivo, human
[6] = tested on: ANIT-induced cholestatic rats; assay: ANIT-induced cholestasis rat model
Procedure: Rats were sacrificed 3-5 h after the last dose, blood samples were collected by cardiac puncture, and serum biomarkers of cholestasis, namely alanine transaminase (ALT), aspartate transaminase (AST), alkaline phosphatase (ALP), total bilirubin, total BA, and gamma-glutamyl transpeptidase (GGT) were analyzed.
as §1

[7] = tested on: FGF19; assay: Pharmacodynamic marker FGF19 with increasing doses; format: in vivo; conditions: increasing doses up to 3000 μg
[8] = Oral gavage toxicity study in dogs for up to 39 weeks; conditions: dog, in vivo
[9] = tested on: NASH subjects; conditions: FLINT trial; placebo 6%; cited from earlier work

SMILES: O=C(O)c1cc(F)c2nc(N3C4CC[C@H]3C[C@H](OCc3c(-c5ccccc5OC(F)(F)F)noc3C3CC3)C4)sc2c1 [tropifexor, 2-[(1R,3r,5S)-3-({5-cyclopropyl-3-[2-(trifluoromethoxy)phenyl]-1,2-oxazol-4-yl}methoxy)-8-azabicyclo[3.2.1]octan-8-yl]-4-fluoro-1,3-benzothiazole-6-carboxylic acid]
- NAFLD activity score (NAS) ([1]; doses 0.1 and 0.3 mg/kg, qd orally weeks 9-12): significant decrease
- fibrosis area ([1]; in comparison with baseline group): decreased in comparison with baseline group
- pericellular fibrosis (Sirius Red-positive areas) ([1]; mouse, in vivo): statistically significant dose-dependent reduction
- liver triglycerides ([1]; tropifexor qd orally weeks 9-12, relative to baseline group): reduction in liver triglycerides
- FGRS effects [2]: no FGRS effects
- IBA positive staining (inflammation) ([3]; 0.3 and 0.9 mg/kg dose groups): normalized to the same level of the control diet group
- liver histology: steatosis, ballooning, and inflammation ([3]; 0.3 and 0.9 mg/kg dose groups): completely reverted
- collagen deposition in liver (trichrome staining) ([3]; even to levels lower than low-fat diet control mice): strongly abrogates
- ALT/AST ([3]; high dose): reduced ALT/AST to an even greater extent
- hepatic crown-like structures ([3]; mid- and high dose): completely eliminated
- ALT and AST levels ([3]; mid-dose level): normalized ALT and AST levels to that of control animals
- mRNA levels of fibrogenic markers Col1a1 and TIMP1 ([3]; mouse, in vivo): dramatically reduced
- steatosis by quantification of liver triglycerides ([3]; mouse, in vivo): Dose-dependent reduction in steatosis
- ALT and AST ([3]; relative to vehicle-treated controls): dose-dependent reduction
- patients with liver fibrosis improvement (at least 1 stage) with no worsening of NAS [4]: about 50%
- patients with normalization of liver enzymes [4]: ≥ 50%
- patients with resolution of NASH (NAS 0 or 1) with no worsening of liver fibrosis [4]: about 30%
- pruritus outcomes (NASH PRO, 5-D pruritus or VAS) [4]: no significant pruritus outcomes
- reduction of hepatic fat, absolute [4]: 5%
- predicted exposure ([5]; 200 μg daily in NASH patients): approximately 80 ng·hr/ml
- NASH patients achieving an AUC >40 ng*h/mL ([5]; 200 μg dose): ~95%
- AUC ([5]; human, in vivo, oral, 200 ug, read-out: exposure level (AUC) in NASH patients): 80 ng·h/mL
- levels of most cholestatic markers ([6]; 1.0 mg/kg dose, oral qd 5 days): normalized to corresponding levels of vehicle-treated non-cholestatic control animals
- collagen deposition and liver fibrosis ([6]; dose-dependent manner): highly reduced
- quantitation of collagen deposition (fibrosis) ([6]; dose-dependent manner): significantly decreased
- AST, ALT, total BAs, total bilirubin, and GGT levels ([6]; doses as low as 0.3 mg/kg, oral qd 5 days): marked reduction
- liver histology: necrosis of the bile duct epithelium, bile duct hyperplasia, inflammatory cell infiltrates ([6]; versus vehicle-treated cholestatic rats): dose-dependent improvement
- FGF19 [7]: continues to rise
- AUC(0-t) ([8]; female): 507 ng·h/mL
- AUC(0-t) ([8]; male): 898 ng·h/mL

SMILES: CC[C@H]1[C@@H](O)[C@@H]2[C@H](CC[C@]3(C)[C@@H]([C@H](C)CCC(=O)O)CC[C@@H]23)[C@@]2(C)CC[C@@H](O)C[C@@H]12 [OCA, 6α-ethyl-chenodeoxycholic acid]
- patients with pruritus [9]: 23%

Source: patent US20190161483A1, “METHODS FOR USING FXR AGONISTS” (Novartis AG, priority 2017, published 2019)
